Laboratory results taken from patent US10059703B2, “3-alkyl-5-fluoro-4-substituted-imino-3,4-dihydropyrimidin-2(1H)-one derivatives as fungicides” (Adama Makhteshim Ltd., priority 2012, dated 2018).
Like-named read-outs stand apart in the source and are kept apart here.

Experiments:
Septoria tritici = assay: Fungicidal activity: leaf blotch of wheat, one-day protectant and three-day curative tests on wheat plants; assay type: in vivo; conditions: Zymoseptoria tritici, 100 ppm, wheat plants (variety Yuma)
Procedure: Example 16: Evaluation of Fungicidal Activity: Leaf Blotch of Wheat (Mycosphaerella graminicola; anamorph: Septoria tritici; Bayer code SEPTTR)
Wheat plants (variety Yuma) were grown from seed in a greenhouse in 50% mineral soil/50% soil-less Metro mix until the first leaf was fully emerged, with 7-10 seedlings per pot. These plants were inoculated with an aqueous spore suspension of Septoria tritici either prior to or after fungicide treatments. After inoculation the plants were kept in 100% relative humidity (one day in a dark dew chamber followed by two to three days in a lighted dew chamber) to permit spores to germinate and infect the leaf. The plants were then transferred to a greenhouse for disease to develop.
(§1) The following tables present the activity of typical compounds of the present disclosure when evaluated in these experiments. The effectiveness of the test compounds in controlling disease was determined by assessing the severity of disease on treated plants, then converting the severity to percent control based on the level of disease on untreated, inoculated plants.
as §1, with “table presents” for “tables present”

[1] = 24 h, One-Day Protectant (1 DP), read-out: SEPTTR 100 PPM 1 DP (% Disease Control rating)
[2] = 72 h, Three-Day Curative (3 DC), read-out: SEPTTR 100 PPM 3 DC (% Disease Control rating)

C/N=c1\c(F)cn(S(=O)(=O)c2cccs2)c(=O)n1C [Compound F4]
melting point: 136 to 138 °C | pest or weed control at 100 ppm (Septoria tritici; [1]): 76 to 100% | pest or weed control at 100 ppm (Septoria tritici; [2]): 76 to 100%

Cc1ccc(S(=O)(=O)n2cc(F)/c(=N\C(=O)c3ccccc3)n(C(=O)c3ccccc3)c2=O)cc1 [Compound F37, (E)-N-(3-benzoyl-5-fluoro-2-oxo-1-tosyl-2,3-dihydropyrimidin-4(1H)-ylidene)benzamide]
melting point: 180.8 to 182.2 °C | pest or weed control at 100 ppm (Septoria tritici; [1]): 0 to 25% | pest or weed control at 100 ppm (Septoria tritici; [2]): 0 to 25%

CC(=O)/N=c1\c(F)cn(S(=O)(=O)c2ccc(C)cc2)c(=O)n1C [Compound F29]
melting point: 134.6 to 136.2 °C | pest or weed control at 100 ppm (Septoria tritici; [1]): 76 to 100% | pest or weed control at 100 ppm (Septoria tritici; [2]): 76 to 100%

Cn1c(=O)n(S(=O)(=O)c2cc(Cl)sc2Cl)cc(F)/c1=N\Cc1ccccc1F [Compound F59]
melting point: 108 to 111 °C | pest or weed control at 100 ppm (Septoria tritici; [1]): 0 to 25% | pest or weed control at 100 ppm (Septoria tritici; [2]): 0 to 25%

C/N=c1\c(F)cn(S(=O)(=O)c2ccc(OC)c(F)c2)c(=O)n1C [Compound F13]
melting point: 138.9 to 140.3 °C | pest or weed control at 100 ppm (Septoria tritici; [1]): 76 to 100% | pest or weed control at 100 ppm (Septoria tritici; [2]): 76 to 100%
